The target of test [1] is T1, ovine membrane progesterone receptor alpha (mPRα) (Ovis aries, UniProt A0ACI6Q1G6).
T1 construct: gene PAQR7; ovine mPRα expressed in CHO cells; digitonin-treated crude membrane fractions
T1 sequence (A0ACI6Q1G6 1-350): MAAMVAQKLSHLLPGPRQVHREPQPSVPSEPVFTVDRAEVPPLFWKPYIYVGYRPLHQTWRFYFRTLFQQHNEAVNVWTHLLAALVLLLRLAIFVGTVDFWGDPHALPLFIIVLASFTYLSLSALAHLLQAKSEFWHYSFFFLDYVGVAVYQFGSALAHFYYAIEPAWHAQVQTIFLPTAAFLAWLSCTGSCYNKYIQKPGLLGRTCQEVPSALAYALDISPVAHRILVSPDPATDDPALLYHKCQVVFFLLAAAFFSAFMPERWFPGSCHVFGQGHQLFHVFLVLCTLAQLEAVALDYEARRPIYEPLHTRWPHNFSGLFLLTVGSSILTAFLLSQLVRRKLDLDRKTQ
Briefly: radioligand competition against 3H-progesterone on mPRα-CHO membranes. Format: binding. (Loss of bound radioactivity is the signal in a displacement assay; it reports binding, not function.)

For test [2], the target named is T1, ovine membrane progesterone receptor alpha (mPRα). Briefly: 3H-progesterone saturation binding on membranes of stable mPRα-CHO cells (also competition, IC50 =[…]).

Where two headings read alike, the source gives them in different places.

For orientation: IC50 means the concentration needed to halve the response being measured. Consider `CC(=O)[C@@]1(O)CC[C@H]2[C@@H]3CCC4=CC(=O)CC[C@]4(C)[C@H]3CC[C@@]21C` [17-OH-P4, 17α-hydroxyprogesterone], for which the IC50 in test [1] (read-out: IC50) turned out to be 735 nM.

In test [1], `C[C@H](O)[C@H]1CC[C@H]2[C@@H]3CCC4=CC(=O)CC[C@]4(C)[C@H]3CC[C@]12C` [20-OH-P4, 20α-hydroxyprogesterone] came in with an IC50 of 298 nM.

By Kd is commonly meant the free concentration of one partner at which half of the binding sites on the other are occupied at equilibrium, for simple one-to-one binding. A low value points to higher affinity. In turn, `CC(=O)[C@H]1CC[C@H]2[C@@H]3CCC4=CC(=O)CC[C@]4(C)[C@H]3CC[C@]12C` [P4, progesterone] had a Kd in test [2] of 122 nM.
